Test results: patent publication US10035800B2 (AbbVie Inc., priority 2013, dated 2018)
Where two headings read alike, the source gives them in different places.

Columns and labels:
[1] = system: breast cancer cell line MX-1; assay: MX-1 cell line proliferation assay; type: cell-based; conditions: MX-1 cells, 3-day proliferation assay, Cell Titer Glo, read-out: Cellular proliferation: EC50
Procedure, shortened: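 MX-1 cells at 5000/well, in RPMI 1640 with 10% FBS, were exposed to compounds for 3 days. Final concentrations ranged 3 μM–0.1 nM or 1 μM–0.03 nM, in 3-fold steps. Cell Titer Glo luminescence was normalized to DMSO and fitted sigmoidally for EC50; overall MSR 2.1.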

[2] = molecular target: T1, BRD4 (BDII_E352-M457) (Homo sapiens, UniProt O60885); assay: TR-FRET bromodomain binding assay, second bromodomain of BRD4; conditions: TR-FRET assay protocol G (compound 0.92 μM-15 pM); 30 nM probe
T1 construct: protocol; made in house
Procedure, shortened: (§1)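 Probe displacement by TR-FRET: 8 nM His-BRD4 bromodomain, 1 nM Eu-anti-His, Alexa647 BET-inhibitor probe at 100 nM (BDI) or 30 nM (BDII); 20 mM Na phosphate pH 6.0, 2% DMSO; 1 h RT. Ex 340, Em 495/520. IC50 from 4PL fit; Ki from IC50, probe Kd and probe concentration.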

[3] = molecular target: T2, BRD4 (BDI_K57-E168) (Homo sapiens, UniProt O60885); assay: TR-FRET bromodomain binding assay, first bromodomain of BRD4; conditions: TR-FRET assay protocol G (compound 0.92 μM-15 pM); 100 nM probe
T2 construct: BD1: amino acids K57-E168; made in house
Procedure, shortened: as §1

| SMILES | EC50 [1] [nM] | Ki [2] [nM] | Ki [3] [nM] | EC50 ([1]; Homo sapiens, MX1, 72 h) [nM] |
| --- | --- | --- | --- | --- |
| Cn1cc2c3c(c[nH]c3c1=O)C(CO)N(c1ccc(F)cc1F)c1ccc(CS(C)(=O)=O)cc1-2 (stereo not drawn) [Example 200, 4-(2,4-difluorophenyl)-3-(hydroxymethyl)-10-methyl-7-((methylsulfonyl)methyl)-3,4-dihydro-1H-1,4,10-triazadibenzo[cd,f]azulen-11(10H)-one] | 34.2 | 2.05 | 8.18 |  |
| Cn1cc2c3c(c(C#N)[nH]c3c1=O)CN(c1ccc(Cl)cc1)c1ccccc1-2 [Example 201, 4-(4-chlorophenyl)-10-methyl-11-oxo-3,4,10,11-tetrahydro-1H-1,4,10-triazadibenzo[cd,f]azulene-2-carbonitrile] | 27.8 | 3.2 | 0.85 |  |
| CCNC(=O)c1[nH]c2c(=O)n(C)cc3c2c1CN(c1ccc(C#N)cc1)c1ccc(CS(C)(=O)=O)cc1-3 [Example 203, 4-(4-cyanophenyl)-N-ethyl-10-methyl-7-((methylsulfonyl)methyl)-11-oxo-3,4,10,11-tetrahydro-1H-1,4,10-triazadibenzo[cd,f]azulene-2-carboxamide] | 5.43 | 0.71 | 0.99 |  |
| Cn1cc2c3c(c[nH]c3c1=O)C(CN1C(=O)c3ccccc3C1=O)N(c1ccc(F)cc1F)c1ccc(CS(C)(=O)=O)cc1-2 [Example 204, (S)-2-((4-(2,4-difluorophenyl)-10-methyl-7-((methylsulfonyl)methyl)-11-oxo-3,4,10,11-tetrahydro-1H-1,4,10-triazadibenzo[cd,f]azulen-3-yl)methyl)isoindoline-1,3-dione] | > 1000 | 1.22 | 46.1 |  |
| Cn1cc2c3c(c[nH]c3c1=O)C(CN1C(=O)c3ccccc3C1=O)N(c1ccc(F)cc1F)c1ccc(CS(C)(=O)=O)cc1-2 [Example 205, (R)-2-((4-(2,4-difluorophenyl)-10-methyl-7-((methylsulfonyl)methyl)-11-oxo-3,4,10,11-tetrahydro-1H-1,4,10-triazadibenzo[cd,f]azulen-3-yl)methyl)isoindoline-1,3-dione] | > 1000 | 29.1 | 200 |  |
| CCOC(=O)c1[nH]c2c(=O)n(C)cc3c2c1CN(c1ccc(F)cc1F)c1ccc(CS(C)(=O)=O)cc1-3 [Example 208, ethyl 4-(2,4-difluorophenyl)-10-methyl-7-((methylsulfonyl)methyl)-11-oxo-3,4,10,11-tetrahydro-1H-1,4,10-triazadibenzo[cd,f]azulene-2-carboxylate] | 10.7 | 1.15 | 3.41 |  |
| Cn1cc2c3c(c(C(N)=O)[nH]c3c1=O)CN(c1ccc(F)cc1F)c1ccc(CS(C)(=O)=O)cc1-2 [Example 209, 4-(2,4-difluorophenyl)-10-methyl-7-((methylsulfonyl)methyl)-11-oxo-3,4,10,11-tetrahydro-1H-1,4,10-triazadibenzo[cd,f]azulene-2-carboxamide] | 6.54 | 0.86 | 1.2 |  |
| Cn1cc2c3c(c(C#N)[nH]c3c1=O)CN(c1ccc(F)cc1F)c1ccc(CS(C)(=O)=O)cc1-2 [Example 210, 4-(2,4-difluorophenyl)-10-methyl-7-((methylsulfonyl)methyl)-11-oxo-3,4,10,11-tetrahydro-1H-1,4,10-triazadibenzo[cd,f]azulene-2-carbonitrile] | 13.3 | 0.8 | 1.72 |  |
| COc1cc(N2Cc3c[nH]c4c(=O)n(C)cc(c34)-c3cc(CS(C)(=O)=O)ccc32)cc(OC)c1OC [Example 211, 10-methyl-7-((methylsulfonyl)methyl)-4-(3,4,5-trimethoxyphenyl)-3,4-dihydro-1H-1,4,10-triazadibenzo[cd,f]azulen-11(10H)-one] | 118 | 7.47 | 5.67 |  |
| Cn1cc2c3c(c[nH]c3c1=O)C(c1ccccc1)N(c1ccc(F)cc1F)c1ccc(CS(C)(=O)=O)cc1-2 (stereo not drawn) [Example 214, 4-(2,4-difluorophenyl)-10-methyl-7-((methylsulfonyl)methyl)-3-phenyl-3,4-dihydro-1H-1,4,10-triazadibenzo[cd,f]azulen-11(10H)-one] | 431 | 3.25 | 40.8 |  |
| Cn1cc2c3c(c[nH]c3c1=O)C(c1ccccc1)N(c1ccc(F)cc1F)c1ccc(CS(C)(=O)=O)cc1-2 [Example 216, (S)-4-(2,4-difluorophenyl)-10-methyl-7-((methylsulfonyl)methyl)-3-phenyl-3,4-dihydro-1H-1,4,10-triazadibenzo[cd,f]azulen-11(10H)-one] | 603 | 65.8 | 57.3 |  |
| Cn1cc2c3c(c[nH]c3c1=O)C(c1cccc3ccccc13)N(c1ccc(F)cc1F)c1ccc(CS(C)(=O)=O)cc1-2 (stereo not drawn) [Example 217, 4-(2,4-difluorophenyl)-10-methyl-7-((methylsulfonyl)methyl)-3-(naphthalen-1-yl)-3,4-dihydro-1H-1,4,10-triazadibenzo[cd,f]azulen-11(10H)-one] | > 1000 | 42.6 | 193 |  |
| [2H]C1([2H])c2c[nH]c3c(=O)n(C)cc(c23)-c2cc(CS(C)(=O)=O)ccc2N1c1ccc(F)cc1F [Example 218, 4-(2,4-difluorophenyl)-(3,3-^2H2)-10-methyl-7-((methylsulfonyl)methyl)-3,4-dihydro-1H-1,4,10-triazadibenzo[cd,f]azulen-11(10H)-one] |  | 0.64 | 0.64 | 1.36 |
| Cn1cc2c3c(c[nH]c3c1=O)C(CC(C)(C)C)N(c1ccc(F)cc1F)c1ccc(CS(C)(=O)=O)cc1-2 (stereo not drawn) [Example 219, 4-(2,4-difluorophenyl)-10-methyl-7-((methylsulfonyl)methyl)-3-neopentyl-3,4-dihydro-1H-1,4,10-triazadibenzo[cd,f]azulen-11(10H)-one] | 301 | 4.76 | 39.9 |  |
| Cn1cc2c3c(c[nH]c3c1=O)C(CN1Cc3ccccc3C1=O)N(c1ccc(F)cc1F)c1ccc(CS(C)(=O)=O)cc1-2 (stereo not drawn) [Example 220, 4-(2,4-difluorophenyl)-10-methyl-7-((methylsulfonyl)methyl)-3-((1-oxoisoindolin-2-yl)methyl)-3,4-dihydro-1H-1,4,10-triazadibenzo[cd,f]azulen-11(10H)-one] | 285 | 2.61 | 51.6 |  |
| COc1cc(OC)cc(C2c3c[nH]c4c(=O)n(C)cc(c34)-c3cc(CS(C)(=O)=O)ccc3N2c2ccc(F)cc2F)c1 (stereo not drawn) [Example 222, 4-(2,4-difluorophenyl)-3-(3,5-dimethoxyphenyl)-10-methyl-7-((methylsulfonyl)methyl)-3,4-dihydro-1H-1,4,10-triazadibenzo[cd,f]azulen-11(10H)-one] | 160 | 29.4 | 170 |  |
| COC(=O)NC1CCC(N2Cc3c[nH]c4c(=O)n(C)cc(c34)-c3cc(CS(C)(=O)=O)ccc32)CC1 (stereo not drawn) [Example 224, methyl (4-(10-methyl-7-((methylsulfonyl)methyl)-11-oxo-10,11-dihydro-1H-1,4,10-triazadibenzo[cd,f]azulen-4(3H)-yl)cyclohexyl)carbamate] | 5.84 | 1.4 | 1.64 |  |
| COC(=O)NC1CCC(N2Cc3c[nH]c4c(=O)n(C)cc(c34)-c3cc(CS(C)(=O)=O)ccc32)CC1 (stereo not drawn) [Example 225, methyl ((trans)-4-(10-methyl-7-((methylsulfonyl)methyl)-11-oxo-10,11-dihydro-1H-1,4,10-triazadibenzo[cd,f]azulen-4(3H)-yl)cyclohexyl)carbamate] | 12.2 | 2.39 | 3.25 |  |
